Columns and labels:
Type in all cases: functional
Conditions in all cases: read-out: GI
[1] = test system: Fusarium oxysporum; test: Fungicidal activity against Fusarium oxysporum assessed as growth inhibition at 50 ug/mL
[2] = test system: Botryosphaeria berengeriana; test: Fungicidal activity against Botryosphaeria berengeriana assessed as growth inhibition at 50 ug/mL
[3] = test system: Mycosphaerella arachidis; test: Fungicidal activity against Mycosphaerella arachidis assessed as growth inhibition at 50 ug/mL
[4] = test system: Alternaria solani; test: Fungicidal activity against Alternaria solani assessed as growth inhibition at 50 ug/mL
[5] = test system: Fusarium graminearum; test: Fungicidal activity against Fusarium graminearum assessed as growth inhibition at 50 ug/mL
[6] = test system: Fusarium oxysporum; test: Fungicidal activity against Fusarium oxysporum assessed as growth inhibition at 1 ug/mL
[7] = test system: Botryosphaeria berengeriana; test: Fungicidal activity against Botryosphaeria berengeriana assessed as growth inhibition at 1 ug/mL
[8] = test system: Mycosphaerella arachidis; test: Fungicidal activity against Mycosphaerella arachidis assessed as growth inhibition at 1 ug/mL
[9] = test system: Alternaria solani; test: Fungicidal activity against Alternaria solani assessed as growth inhibition at 1 ug/mL
[10] = test system: Fusarium graminearum; test: Fungicidal activity against Fusarium graminearum assessed as growth inhibition at 1 ug/mL
[11] = test system: Fusarium oxysporum; test: Fungicidal activity against Fusarium oxysporum assessed as growth inhibition at 5 ug/mL
[12] = test system: Botryosphaeria berengeriana; test: Fungicidal activity against Botryosphaeria berengeriana assessed as growth inhibition at 5 ug/mL
[13] = test system: Alternaria solani; test: Fungicidal activity against Alternaria solani assessed as growth inhibition at 5 ug/mL
[14] = test system: Fusarium graminearum; test: Fungicidal activity against Fusarium graminearum assessed as growth inhibition at 5 ug/mL
[15] = test system: Mycosphaerella arachidis; test: Fungicidal activity against Mycosphaerella arachidis assessed as growth inhibition at 5 ug/mL

Row | Structure (SMILES) | inhibition of growth at 50 µg/mL [1] | inhibition of growth at 50 µg/mL [2] | inhibition of growth at 50 µg/mL [3] | inhibition of growth at 50 µg/mL [4] | inhibition of growth at 50 µg/mL [5] | inhibition of growth at 1 µg/mL [6] | inhibition of growth at 1 µg/mL [7] | inhibition of growth at 1 µg/mL [8] | inhibition of growth at 1 µg/mL [9] | inhibition of growth at 1 µg/mL [10] | inhibition of growth at 5 µg/mL [11] | inhibition of growth at 5 µg/mL [12] | inhibition of growth at 5 µg/mL [13] | inhibition of growth at 5 µg/mL [14] | inhibition of growth at 5 µg/mL [15]
1 | CCNCC(O)(Cn1cncn1)c1ccc(Oc2ccc(Cl)cc2)cc1Cl (stereo not given) | 86.9% | 75.4% | 61.4% | 63.8% | 56.8% | – | – | – | – | – | – | – | – | – | –
2 | CNCC(O)(Cn1cncn1)c1ccc(Oc2ccc(Cl)cc2)cc1Cl (stereo not given) | 100% | 100% | 99% | 99% | 98% | 0% | 96% | 57.2% | 50.3% | 72.5% | – | – | – | – | –
3 | COCC(O)(Cn1cncn1)c1ccc(Oc2ccc(Cl)cc2)cc1Cl (stereo not given) | 100% | 100% | 99.1% | 100% | 98.7% | 89.9% | 99.2% | 78.6% | 98.7% | 63.2% | – | – | – | – | –
4 | OC(CNC1CCCCC1)(Cn1cncn1)c1ccc(Oc2ccc(Cl)cc2)cc1Cl (stereo not given) | 78.9% | 100% | 75.2% | 87.3% | 47.5% | – | – | – | – | – | – | – | – | – | –
5 | CSCC(O)(Cn1cncn1)c1ccc(Oc2ccc(Cl)cc2)cc1Cl (stereo not given) | 78.9% | 100% | 82.4% | 83.7% | 37.2% | – | – | – | – | – | – | – | – | – | –
6 | OCCNCC(O)(Cn1cncn1)c1ccc(Oc2ccc(Cl)cc2)cc1Cl (stereo not given) | 100% | 97.7% | 72.2% | 98.5% | 37.3% | – | – | – | – | – | – | – | – | – | –
7 | CONCC(O)(Cn1cncn1)c1ccc(Oc2ccc(Cl)cc2)cc1Cl (stereo not given) | 100% | 100% | 98.4% | 100% | 97.3% | 0% | 84.2% | 55.3% | 61.3% | 18.2% | – | – | – | – | –
8 | COCC(O)(Cn1cncn1)c1ccc(Oc2ccc(F)cc2)cc1Cl (stereo not given) | 100% | 100% | 100% | 100% | 100% | 82.7% | 89.5% | 76.2% | 96.9% | 57.2% | – | – | – | – | –
9 | CNCC(O)(Cn1cncn1)c1ccc(Oc2ccc(F)cc2)cc1Cl (stereo not given) | 100% | 100% | 100% | 100% | 100% | 68.7% | 74.6% | 72.1% | 86.7% | 67.2% | – | – | – | – | –
10 | OC(Cn1ccnc1)(Cn1cncn1)c1ccc(Oc2ccc(F)cc2)cc1Cl (stereo not given) | 57.1% | 87.9% | 100% | 73.2% | 84.3% | – | – | – | – | – | – | – | – | – | –
11 | OC(Cn1cncn1)(Cn1cncn1)c1ccc(Oc2ccc(F)cc2)cc1Cl | 100% | 95.9% | 100% | 97.5% | 95% | 90% | 49.3% | 39.5% | 75% | 21.8% | – | – | – | – | –
12 | CC(O)(Cn1cncn1)c1ccc(Oc2ccc(Cl)cc2)cc1Cl (stereo not given) | 85.3% | 100% | 100% | 78.2% | 100% | – | – | – | – | – | – | – | – | – | –
13 | CC(O)(Cn1cncn1)c1ccc(Oc2ccc(F)cc2)cc1Cl (stereo not given) | 99% | 100% | 99% | 100% | 98% | 17.9% | 48.7% | 37.5% | 20% | 0% | – | – | – | – | –
14 | OC(/C=C/c1ccccc1)(Cn1cncn1)c1ccc(Oc2ccc(Cl)cc2)cc1Cl (stereo not given) | 68.7% | 67.9% | 100% | 81.2% | 64.3% | – | – | – | – | – | – | – | – | – | –
15 | OC(/C=C/c1ccc(Cl)cc1)(Cn1cncn1)c1ccc(Oc2ccc(Cl)cc2)cc1Cl (stereo not given) | 57.1% | 64.1% | 95% | 76.8% | 77.2% | – | – | – | – | – | – | – | – | – | –
16 | OC(/C=C/c1ccc(Cl)cc1Cl)(Cn1cncn1)c1ccc(Oc2ccc(Cl)cc2)cc1Cl (stereo not given) | 50.9% | 58.7% | 97.8% | 54.4% | 37.2% | – | – | – | – | – | – | – | – | – | –
17 | OC(/C=C/c1c(Cl)cccc1Cl)(Cn1cncn1)c1ccc(Oc2ccc(Cl)cc2)cc1Cl (stereo not given) | 51.8% | 79.3% | 92.4% | 60.7% | 50.3% | – | – | – | – | – | – | – | – | – | –
18 | Cc1ccc(/C=C/C(O)(Cn2cncn2)c2ccc(Oc3ccc(Cl)cc3)cc2Cl)cc1 (stereo not given) | 60.2% | 59.3% | 95% | 63.2% | 51.8% | – | – | – | – | – | – | – | – | – | –
19 | COc1ccc(/C=C/C(O)(Cn2cncn2)c2ccc(Oc3ccc(Cl)cc3)cc2Cl)cc1 (stereo not given) | 55.4% | 64.5% | 91.3% | 55% | 61.4% | – | – | – | – | – | – | – | – | – | –
20 | OC(/C=C/c1ccc(Cl)c(Cl)c1)(Cn1cncn1)c1ccc(Oc2ccc(Cl)cc2)cc1Cl (stereo not given) | 57.1% | 64.6% | 100% | 66.7% | 53.6% | – | – | – | – | – | – | – | – | – | –
21 | OC(/C=C/c1ccccc1F)(Cn1cncn1)c1ccc(Oc2ccc(Cl)cc2)cc1Cl (stereo not given) | 65.9% | 52.1% | 99.3% | 55% | 61.4% | – | – | – | – | – | – | – | – | – | –
22 | OC(Cn1cncn1)(Cn1cncn1)c1ccc(Oc2ccc(Cl)cc2)cc1Cl | 99% | 100% | 100% | 99% | 100% | 62.5% | 90.3% | 88.1% | 58.6% | 82.6% | 80.9% | 91% | 84.2% | 100% | 100%
23 | OC(Cn1ccnc1)(Cn1cncn1)c1ccc(Oc2ccc(Cl)cc2)cc1Cl (stereo not given) | 95% | 99% | 100% | 99% | 71.4% | – | – | – | – | – | – | – | – | – | –
24 | OC(CN1CCOCC1)(Cn1cncn1)c1ccc(Oc2ccc(Cl)cc2)cc1Cl (stereo not given) | 34.4% | 65.2% | 60% | 55.2% | 78.3% | – | – | – | – | – | – | – | – | – | –
25 | OC(Cn1cncn1)(Cn1nnc2ccccc21)c1ccc(Oc2ccc(Cl)cc2)cc1Cl (stereo not given) | 48.7% | 55.6% | 62.7% | 53.3% | 45.4% | – | – | – | – | – | – | – | – | – | –
26 | OCC(O)(Cn1cncn1)c1ccc(Oc2ccc(Cl)cc2)cc1Cl (stereo not given) | 77.1% | 99% | 100% | 99% | 99% | – | – | – | – | – | – | – | – | – | –
27 | CN(C)CC(O)(Cn1cncn1)c1ccc(Oc2ccc(Cl)cc2)cc1Cl (stereo not given) | 100% | 100% | 97.2% | 99.1% | 96.9% | 0% | 27.7% | 0% | 18.6% | 4.2% | – | – | – | – | –
28 | CC1COC(Cn2cncn2)(c2ccc(Oc3ccc(Cl)cc3)cc2Cl)O1 (stereo not given) [DIFENOCONAZOLE] | 99.9% | 100% | 100% | 99.2% | 100% | 53.1% | 69.7% | 56.7% | 95% | 73.9% | – | – | – | – | –
29 | CC(C)(C)C(O)(CCc1ccc(Cl)cc1)Cn1cncn1 (stereo not given) [TEBUCONAZOLE] | 100% | 100% | 100% | 100% | 100% | 65.6% | 68.2% | 91% | 65.5% | 86.9% | – | – | – | – | –
